The source of these data is patent publication US20220402935A1, “HETEROCYCLIC COMPOUND” (FIMECS, INC., priority 2019, published 2022).

The target of one assay is T1, IRAK-M (Homo sapiens, UniProt Q9Y616).
T1 sequence (Q9Y616 1-596): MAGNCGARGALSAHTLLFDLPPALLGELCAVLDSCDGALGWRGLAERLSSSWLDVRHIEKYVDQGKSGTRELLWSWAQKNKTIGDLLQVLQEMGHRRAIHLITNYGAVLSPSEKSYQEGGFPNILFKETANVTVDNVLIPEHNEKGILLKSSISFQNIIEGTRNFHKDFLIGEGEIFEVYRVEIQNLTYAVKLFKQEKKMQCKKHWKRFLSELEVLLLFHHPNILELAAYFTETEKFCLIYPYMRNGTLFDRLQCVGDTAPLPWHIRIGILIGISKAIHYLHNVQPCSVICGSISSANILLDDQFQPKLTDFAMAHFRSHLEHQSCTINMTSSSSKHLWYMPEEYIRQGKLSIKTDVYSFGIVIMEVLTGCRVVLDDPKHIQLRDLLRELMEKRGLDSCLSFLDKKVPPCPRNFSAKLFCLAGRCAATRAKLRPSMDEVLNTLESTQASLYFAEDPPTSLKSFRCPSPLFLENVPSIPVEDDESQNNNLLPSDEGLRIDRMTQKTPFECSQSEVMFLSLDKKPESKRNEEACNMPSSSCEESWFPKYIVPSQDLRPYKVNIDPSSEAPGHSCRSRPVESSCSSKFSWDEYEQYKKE
Kind of assay: IRAK-M binding inhibitory activity (KINOMEscan active site-dependent competitive assay). The following applies: for remaining binding at 1 µM: concentration of the test compound 1 μM, first symbol of cell, read-out: IRAK-M binding inhibition activity % Ctrl; for IC50: second symbol of cell, read-out: IRAK-M binding inhibition IC50 value. Details: purchased Eurofins Discover X. The method in brief:
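Active site-dependent competition binding assay (KINOMEscan) against human IRAK-M. Result expressed as % Ctrl = (compound signal − positive control signal)/(DMSO signal − positive control signal) × 100, where DMSO = 100% Ctrl and control compound = 0% Ctrl.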

The target of assay [1] is T2, human XIAP_BIR3 domain purified protein (Homo sapiens, UniProt P98170).
T2 construct: purchased R & D
T2 sequence (P98170 252-356 limits assumed): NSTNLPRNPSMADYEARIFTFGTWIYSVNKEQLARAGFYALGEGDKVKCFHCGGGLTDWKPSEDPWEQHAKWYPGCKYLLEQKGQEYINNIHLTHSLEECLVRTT
The assay is described as follows: XIAP binding inhibitory activity (HTRF, b-Smac ligand). The following applies: for IC50: second symbol of cell, read-out: XIAP binding inhibition IC50 value. Here is the method:
Human XIAP binding inhibitory activity was measured by the Homogeneous Time Resolved Fluorescence (HTRF) method with using commercially available human XIAP_BIR3 domain purified protein (R & D) and as a ligand a Smac N-terminal peptide (AVPIAQK (SEQ ID NO: 1)) (hereinafter referred to as “b-Smac”; Peptide Research Laboratories, Inc.) biotinylated at the C-terminus according to a conventional method.
The HTRF method will be described in detail below.
The test compound diluted with a reaction buffer (25 mM HEPES Buffer containing 100 mM NaCl, 0.1% BSA, and 0.1% triton X-100, pH 7.5) was added to a 384-well white shallow bottom plate (Greiner 784076) at 1 μL/well and flash centrifuged for 30 seconds. Subsequently, human XIAP_BIR3 domain purified protein was diluted with the reaction buffer to obtain a 90 nM sample diluent, and the resultant sample diluent was added to the above-mentioned white superficial plate at 4.5 μL/well and flash centrifuged for 30 seconds. Subsequently, b-Smac diluted to 90 nM with the reaction buffer was added to the above-mentioned white superficial plat at 4.5 μL/well and flash centrifuged for 30 seconds. A mixed solution of Anti-6 HIS-Cryptate (Eu^3+ Cryptate-conjugated mouse monoclonal antibody anti-6 Histidine; cisbio) and Streptavidin-XL^eat (Highgrade XL665-conjugated streptavidin; cisbio) both diluted 100-fold with HTRF detection buffer (cisbio) at a volume ratio of 1:1 was added to the above white superficial plate at 10 μL/well. After flash centrifuging the white shallow bottom plate for 30 seconds, the white shallow bottom plate was left at room temperature for 4 hours or more in the dark. The white superficial plate after being left was subjected to fluorescence intensity measurement (excitation wavelength: 320 nm, fluorescence wavelength: 665 nm and 615 nm) by EnVision (Perkin Elmer). The binding inhibition rate (%) was calculated based on the HTRF ratio in the presence of the test compound to the HTRF ratio in the absence of the test compound (fluorescence intensity at 665 nm/fluorescence intensity at 615 nm).
The XIAP binding inhibition rate (%) of test compounds was evaluated.
(In general: Time-resolved FRET reads energy transfer from a long-lived donor to a nearby acceptor.)

As for `CN[C@@H](C)C(=O)N[C@H](C(=O)N1CCC[C@H]1c1nc(C(=O)c2cccc(OCCOCCOCCOCCOc3cc(CN4CCC(Oc5ccnc6ccsc56)CC4)on3)c2)cs1)C1CCCCC1` [Example 60, (S)-N-((S)-1-cyclohexyl-2-oxo-2-((S)-2-(4-(3-(2-(2-(2-(2-((5-((4-(thieno[3,2-b]pyridin-7-yloxy)piperidin-1-yl)methyl)isoxazol-3-yl)oxy)ethoxy)ethoxy)ethoxy)ethoxy)benzoyl)thiazol-2-yl)pyrrolidin-1-yl)ethyl)-2-(methylamino)propanamide], on IRAK-M, the remaining binding at 1 µM was less than 25%. Besides, the IC50 in assay [1] was less than 300 nM.

Take `CN[C@@H](C)C(=O)N[C@H](C(=O)N1CCN(C(=O)c2c(C(=O)NCCOCCOCCOCCOc3cc(CN4CCC(Oc5ccnc6ccsc56)CC4)on3)c3cc(F)c(F)cc3n2C)CC1)C1CCCCC1` [Example 6, 2-(4-((S)-2-cyclohexyl-2-((S)-2-(methylamino)propanamido)acetyl)piperazine-1-carbonyl)-5,6-difluoro-1-methyl-N-(2-(2-(2-(2-((5-((4-(thieno[3,2-b]pyridin-7-yloxy)piperidin-1-yl)methyl)isoxazol-3-yl)oxy)ethoxy)ethoxy)ethoxy)ethyl)-1H-indole-3-carboxamide]: the values for the IC50 (on IRAK-M; in assay [1]) were 100 to 300 nM and 300 to 3000 nM, respectively.

As to `CN[C@@H](C)C(=O)N[C@H](C(=O)N1CCN(C(=O)c2c(C(=O)NCCOCCOCCOc3ccc(S(=O)(=O)N4CCC(Oc5ncnc6ccsc56)CC4)cc3)c3ccc(OC)cc3n2C)CC1)C1CCCCC1` [Example 2, 2-(4-((S)-2-Cyclohexyl-2-((S)-2-(methylamino)propanamido)acetyl)piperazine-1-carbonyl)-6-methoxy-1-methyl-N-(2-(2-(2-(4-((4-(thieno[3,2-d]pyrimidin-4-yloxy)piperidin-1-yl)sulfonyl)phenoxy)ethoxy)ethoxy)ethyl)-1H-indole-3-carboxamide], the IC50 at IRAK-M lay in the range of 300 to 1000 nM; in assay [1] it was 300 to 3000 nM.

Regarding `CN[C@@H](C)C(=O)N[C@H](C(=O)N1CCN(C(=O)c2cc3c(OCCOCCOCCOc4cc(CN5CCC(Oc6ccnc7ccsc67)CC5)on4)c(F)c(F)cc3n2C)CC1)C1CCCCC1` [Example 52, (S)-N-((S)-1-cyclohexyl-2-(4-(5,6-difluoro-1-methyl-4-(2-(2-(2-((5-((4-(thieno[3,2-b]pyridin-7-yloxy)piperidin-1-yl)methyl)isoxazol-3-yl)oxy)ethoxy)ethoxy)ethoxy)-1H-indole-2-carbonyl)piperazin-1-yl)-2-oxoethyl)-2-(methylamino)propanamide], the remaining binding at 1 µM at IRAK-M is less than 25%. Moreover, the IC50 in assay [1] was in the range of 300 to 3000 nM.

For `CN[C@@H](C)C(=O)N[C@H](C(=O)N1CCN(C(=O)c2cc3cc(F)ccc3n2CC(=O)N(C)CCOc2cc(CN3CCC(Oc4ccnc5ccsc45)CC3)on2)[C@@H](C)C1)C1CCCCC1` [Example 50, (S)-N-((S)-1-cyclohexyl-2-((S)-4-(5-fluoro-1-(2-(methyl(2-((5-((4-(thieno[3,2-b]pyridin-7-yloxy)piperidin-1-yl)methyl)isoxazol-3-yl)oxy)ethyl)amino)-2-oxoethyl)-1H-indole-2-carbonyl)-3-methylpiperazin-1-yl)-2-oxoethyl)-2-(methylamino)propanamide], the IC50 in assay [1] was 3000 to 30000 nM.

For `CN[C@@H](C)C(=O)N[C@H](C(=O)N1CCN(C(=O)c2c(C(=O)NCCOCCOc3cc(CN4CCC(Oc5ccnc6ccsc56)CC4)on3)c3cc(F)c(F)cc3n2C)CC1)C1CCCCC1` [Example 4, 2-(4-((S)-2-cyclohexyl-2-((S)-2-(methylamino)propanamido)acetyl)piperazine-1-carbonyl)-5,6-difluoro-1-methyl-N-(2-(2-((5-((4-(thieno[3,2-b]pyridin-7-yloxy)piperidin-1-yl)methyl)isoxazol-3-yl)oxy)ethoxy)ethyl)-1H-indole-3-carboxamide], the IC50 at IRAK-M fell in the range of 300 to 1000 nM; in assay [1], 300 to 3000 nM.

For `CN[C@@H](C)C(=O)N[C@H](C(=O)N1CCN(C(=O)c2c(C(=O)NCCOCCOCCOc3cc(CN4CCC(Oc5ccnc6ccsc56)CC4)on3)c3cc(F)c(F)cc3n2C)C[C@H]1C)C1CCCCC1` [Example 10, 2-((R)-4-((S)-2-cyclohexyl-2-((S)-2-(methylamino)propanamido)acetyl)-3-methylpiperazine-1-carbonyl)-5,6-difluoro-1-methyl-N-(2-(2-(2-((5-((4-(thieno[3,2-b]pyridin-7-yloxy)piperidin-1-yl)methyl)isoxazol-3-yl)oxy)ethoxy)ethoxy)ethyl)-1H-indole-3-carboxamide], at IRAK-M, the remaining binding at 1 µM is 25 to 50%. Further, in assay [1], the IC50 was in the range of 300 to 3000 nM.

Regarding `CN[C@@H](C)C(=O)N[C@H](C(=O)N1CCN(C(=O)c2cc3cc(F)ccc3n2CC(=O)N2C[C@@H](Oc3cc(CN4CCC(Oc5ccnc6ccsc56)CC4)on3)C[C@H]2CO)[C@@H](C)C1)C1CCCCC1` [Example 43, (S)-N-((S)-1-cyclohexyl-2-((S)-4-(5-fluoro-1-(2-((2S,4S)-2-(hydroxymethyl)-4-((5-((4-(thieno[3,2-b]pyridin-7-yloxy)piperidin-1-yl)methyl)isoxazol-3-yl)oxy)pyrrolidin-1-yl)-2-oxoethyl)-1H-indole-2-carbonyl)-3-methylpiperazin-1-yl)-2-oxoethyl)-2-(methylamino)propanamide], the IC50 in assay [1] lay within 3000 to 30000 nM.

`CN[C@@H](C)C(=O)N[C@H](C(=O)N1CCN(C(=O)c2cc3cc(F)c(F)cc3n2CCOCCOCCOc2cc(CN3CCC(Oc4ccnc5ccsc45)CC3)on2)CC1)C1CCCCC1` [Example 30, (S)-N-((S)-1-cyclohexyl-2-(4-(5,6-difluoro-1-(2-(2-(2-((5-((4-(thieno[3,2-b]pyridin-7-yloxy)piperidin-1-yl)methyl)isoxazol-3-yl)oxy)ethoxy)ethoxy)ethyl)-1H-indole-2-carbonyl)piperazin-1-yl)-2-oxoethyl)-2-(methylamino)propanamide]: the inhibition at 3 µM in assay [1] (concentration of the test compound 3 μM, first symbol of cell, read-out: XIAP binding inhibition rate) is greater than 25%.

In the case of `c1ccc(-c2cc3ncnc(NCc4cccnc4)c3s2)cc1` [Ref. example 16, 6-phenyl-N-(pyridin-3-ylmethyl)thieno[3,2-d]pyrimidin-4-amine], the remaining binding at 1 µM on IRAK-M is 50 to 75%.

As to `FC(F)(F)c1ncccc1Nc1ncnc2ccsc12` [Ref. example 24, N-(2-(trifluoromethyl)pyridin-3-yl)thieno[3,2-d]pyrimidin-4-amine], the remaining binding at 1 µM on IRAK-M lay in the range of 50 to 75%.

Take `O=C(Cn1cccn1)N1CCC(Oc2ccnc3ccsc23)CC1` [Ref. example 81, 2-(1H-pyrazol-1-yl)-1-(4-(thieno[3,2-b]pyridin-7-yloxy)piperidin-1-yl)ethan-1-one]: at IRAK-M, the remaining binding at 1 µM is 50 to 75%.

Take `COc1cc(Nc2ncnc3ccsc23)ccn1` [Ref. example 23, N-(2-methoxypyridin-4-yl)thieno[3,2-d]pyrimidin-4-amine]: the remaining binding at 1 µM at IRAK-M lay in the range of 25 to 50%.

As to `CS(=O)(=O)N1CCC(Oc2ncnc3ccsc23)CC1` [Ref. example 39, 4-((1-(methylsulfonyl)piperidin-4-yl)oxy)thieno[3,2-d]pyrimidine], on IRAK-M, the remaining binding at 1 µM lay in the range of 50 to 75%.

The term IC50 denotes the concentration at which inhibition is half-maximal. The inhibition is the drop in the measured response relative to a control, in per cent.
